Reference: the NIST ThermoML archive (doi:10.1021/je100476h)

Assay: mn = molality of the nth substance listed, in mol/kg
Settings: 101 kPa, Liquid

NCC(=O)O [2-aminoacetic acid] + O
mass density [kg/m3]
Settings	m1 = 0.1429	m1 = 0.2709	m1 = 0.3812	m1 = 0.4102	m1 = 0.4801	m1 = 0.5732
288.15 K	1003.76	1007.85	1011.33	1012.23	1014.4	1017.27
298.15 K	1001.56	1005.54	1008.93	1009.8	1011.92	1014.71
308.15 K	998.477	1002.4	1005.73	1006.59	1008.66	1011.41
318.15 K	994.636	998.503	1001.79	1002.63	1004.67	1007.37

NCCCC(=O)O [4-aminobutanoic acid] + O
mass density [kg/m3]
Settings	m1 = 0.04607	m1 = 0.09549	m1 = 0.1155	m1 = 0.1652	m1 = 0.1882	m1 = 0.2277
288.15 K	1000.54	1002.05	1002.65	1004.13	1004.83	1005.99
298.15 K	998.428	999.894	1000.48	1001.93	1002.61	1003.73
308.15 K	995.406	996.864	997.447	998.889	999.542	1000.66
318.15 K	991.616	993.071	993.654	995.086	995.747	996.868

NCCCCCC(=O)O [6-aminohexanoic acid] + O
mass density [kg/m3]
Settings	m1 = 0.05814	m1 = 0.09073	m1 = 0.1798	m1 = 0.1945	m1 = 0.267	m1 = 0.3522
288.15 K	1000.76	1001.66	1004.09	1004.48	1006.41	1008.64
298.15 K	998.622	999.493	1001.84	1002.22	1004.08	1006.23
308.15 K	995.592	996.454	998.775	999.147	1000.99	1003.12
318.15 K	991.793	992.649	994.956	995.328	997.158	999.27

CC(=O)[O-].CC(=O)[O-].[Mg+2] [magnesium acetate] + O
mass density [kg/m3]
Settings	288.15 K	298.15 K	308.15 K	318.15 K
m1 = 0.1	1007.01	1004.9	1001.84	998.062
m1 = 0.25	1018.2	1016.05	1012.89	1009.15
m1 = 0.5	1035.44	1033.15	1030.05	1026.24
m1 = 1	1064.68	1061.74	1059.65	1055.19

CC(=O)[O-].[Na+] [sodium ethanoate] + O
mass density [kg/m3]
Settings	288.15 K	298.15 K	308.15 K	318.15 K
m1 = 0.1	1003.46	1001.31	998.243	994.384
m1 = 0.25	1009.6	1007.39	1004.27	1000.35
m1 = 0.5	1019.38	1017.07	1013.89	1009.85
m1 = 1	1037.22	1034.76	1031.54	1027.23

O [water] + CC(=O)[O-].[Na+]
Settings	mass density [kg/m3]
308.15 K, m2 = 0	994.063
